From patent publication US11485751B2, “Apramycin derivatives” (WAYNE STATE UNIVERSITY, priority 2017, dated 2022)
≈ marks a conversion by molar mass, not a printed value. Read-outs that look alike come from different tables or passages of the source.

How the values were obtained:
[1] = test system: human cytosolic ribosomes; assay: in-vitro translation assay, human cytosolic ribosomes; type: biochemical
Summary of the method: (§1)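 Cell-free translation; IC50 read-out. Mito = human chimeric ribosomes; cytosolic = rabbit reticulocyte ribosomes; bacterial ribosomes run in the same assay format.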

[2] = test system: AG290, Enterobacter cloacae; assay: MIC reference strain AG290; type: cell-based; details: Enterobacter cloacae; reference strain; read-out: MIC AG290 E. cloacae
Summary of the method: (§2)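 Broth microdilution per CLSI standard M07-A10 gave the minimal inhibitory concentrations.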

[3] = test system: AG031 P. aer. APH(3′)-II; assay: Antibacterial activity, clinical isolate AG031; type: cell-based; set-up: unit not given here
Summary of the method: (§3)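 Clinical isolates tested by CLSI M07-A10 broth microdilution, with minimal inhibitory concentration as the read-out.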

[4] = test system: AG042 MRSA AAC(6′)-I ANT(4′)-I APH(2′); assay: Antibacterial activity, clinical isolate AG042; type: cell-based; set-up: unit not given here
Summary of the method: as §3

[5] = test system: Engineered E. coli pH424 armA; assay: Activity against G1405-methylated 16S-rRNA, E. coli pH424 armA; type: cell-based
Summary of the method: (§4)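 Broth microdilution per CLSI M07-A10; readout MIC.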

[6] = test system: AG001 E. coli WT; assay: Antibacterial activity, clinical isolate AG001; type: cell-based; set-up: unit not given here
Summary of the method: as §3

[7] = test system: AG173 E. coli AAC(3)-IV; assay: Antibacterial activity, clinical isolate AG173; type: cell-based
Summary of the method: as §3

[8] = test system: ATCC19977 M. abcessus; assay: MIC reference strain ATCC19977; type: cell-based; details: read-out: MIC ATCC19977 M. abcessus
Summary of the method: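 Broth microdilution, CLSI dilution method for aerobic bacteria; read-out is minimal inhibitory concentration (MIC).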

[9] = test system: Enterob. AG302 AAC(3)-II AAC(6′)-I rmtC; assay: Activity against G1405-methylated 16S-rRNA, clinical isolate AG302; type: cell-based
Summary of the method: as §4

[10] = test system: AG032 P. aer. APH(3′)-II; assay: Antibacterial activity, clinical isolate AG032; type: cell-based; set-up: unit not given here
Summary of the method: as §3

[11] = test system: AG220, Pseudomonas aeruginosa ATCC27853; assay: MIC reference strain AG220; type: cell-based; details: Pseudomonas aeruginosa, ATCC27853, reference strain ATCC27853; read-out: MIC AG220 P. aeruginosa
Summary of the method: as §2

[12] = test system: AG163 E. coli APH(3′)-I; assay: Antibacterial activity, clinical isolate AG163; type: cell-based
Summary of the method: as §3

[13] = test system: clinical isolates carrying APH(3′)-III; assay: MIC broth microdilution, APH(3′)-III; type: cell-based; details: IMM Univ. Zurich
Source text: (§5) Minimal inhibitory concentrations (MIC) have been determined by broth microdilution assays (CLSI. Methods for Dilution Antimicrobial Susceptibility Tests for Bacteria That Grow Aerobically; Approved Standard—Tenth Edition. CLSI document M07-A10. Wayne, Pa.: Clinical and Laboratory Standards Institute; 2015.).
Minimal inhibitory concentrations (MICs, […]) against clinical isolates from Institute of Medical Microbiology, Univ. Zurich, and the IC50 values for bacterial, human mitochondrial and human cytosolic ribosomes are indicated.

[14] = test system: Engineered E. coli pH426 rmtC; assay: Activity against G1405-methylated 16S-rRNA, E. coli pH426 rmtC; type: cell-based
Summary of the method: as §4

[15] = test system: E. coli AG153 AAC(3)-II APH(3′)-II rmtB; assay: Activity against G1405-methylated 16S-rRNA, clinical isolate AG153; type: cell-based
Summary of the method: as §4

[16] = test system: clinical isolates carrying AAC(3)-IV; assay: MIC broth microdilution, AAC(3)-IV; type: cell-based; details: for MIC: clinical isolates, IMM Univ. Zurich, AAC(3)-IV, read-out: MIC AAC(3)-IV
Summary of the method: (§6)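 Clinical isolates supplied by the Zurich Institute of Medical Microbiology were tested for MIC (μg/ml) using CLSI M07-A10 broth microdilution.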

[17] = test system: AG212, Escherichia coli ATCC25922; assay: MIC reference strain AG212; type: cell-based; details: Escherichia coli; reference strain ATCC25922; read-out: MIC AG212 E. coli
Summary of the method: as §2

[18] = test system: clinical isolates carrying APH(3′)-I; assay: MIC broth microdilution, APH(3′)-I; type: cell-based; details: IMM Univ. Zurich
[19] = test system: Engineered E. coli AG103 armA; assay: Activity against G1405-methylated 16S-rRNA, E. coli AG103 armA; type: cell-based
Summary of the method: as §4

[20] = test system: Engineered E. coli pH427 rmtF; assay: Activity against G1405-methylated 16S-rRNA, E. coli pH427 rmtF; type: cell-based
Summary of the method: as §4

[21] = test system: clinical isolates carrying APH(3′)-VI; assay: MIC broth microdilution, APH(3′)-VI; type: cell-based; details: IMM Univ. Zurich
[22] = test system: AG003 E. coli AAC(3)-II; assay: Antibacterial activity, clinical isolate AG003; type: cell-based
Summary of the method: as §3

[23] = test system: AG038 MRSA; assay: Antibacterial activity, clinical isolate AG038; type: cell-based; set-up: unit not given here
Summary of the method: as §3

[24] = test system: AG039 MRSA AAC(6′)-I ANT(4′)-I; assay: Antibacterial activity, clinical isolate AG039; type: cell-based
Summary of the method: as §3

[25] = test system: eukaryotic ribosomes; assay: in-vitro translation assays, bacterial versus eukaryotic ribosomes; type: biochemical
Source text: IC50 values for bacterial, human chimeric, and rabbit reticulocyte ribosomes have been determined by in-vitro translation assays as described previously (Proc. Nat. Ac. Sci USA 2012, 109(27):10984-10989).

[26] = test system: AG225, Acinetobacter baumannii pittii; assay: MIC reference strain AG225; type: cell-based; details: Acinetobacter baumannii, reference strain; read-out: MIC AG225 A. baumannii
Summary of the method: as §2

[27] = test system: human mitochondrial ribosomes; assay: in-vitro translation assay, human mitochondrial (human chimeric) ribosomes; type: biochemical
Summary of the method: as §1

[28] = test system: Engineered E. coli pH425 rmtB; assay: Activity against G1405-methylated 16S-rRNA, E. coli pH425 rmtB; type: cell-based
Summary of the method: as §4

[29] = test system: AG215, Klebsiella pneumonia; assay: MIC reference strain AG215; type: cell-based; details: Klebsiella pneumoniae, reference strain; read-out: MIC AG215 K. pneumonia
Summary of the method: as §2

[30] = test system: AG055 E. coli WT; assay: Antibacterial activity, clinical isolate AG055; type: cell-based; set-up: unit not given here
Summary of the method: as §3

[31] = test system: APH(3′, 5″) resistance determinant; assay: Susceptibility to the APH(3′, 5″) resistance determinant; type: cell-based
Source text: as §5
The introduction of a formamido group results in compounds that display increased selectivity for the bacterial ribosome over the mitochondrial (wild type and A1555G mutant) ribosomes, predictive of reduced ototoxicity.

[32] = test system: bacterial ribosomes; assay: in-vitro translation assay, bacterial ribosomes; type: biochemical
Summary of the method: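 Each ribosome preparation (bacterial, human chimeric as the mitochondrial model, rabbit reticulocyte as the cytosolic model) drives in-vitro translation with the test compound present. Inhibition of translation gives the IC50.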

[33] = test system: K. pneum. AG269 AAC(3)-II AAC(6′)-I rmtB; assay: Activity against G1405-methylated 16S-rRNA, clinical isolate AG269; type: cell-based
Summary of the method: as §4

[34] = test system: AG033 P. aer. APH(3′)-II AAC(6′)-I; assay: Antibacterial activity, clinical isolate AG033; type: cell-based; set-up: unit not given here
Summary of the method: as §3

[35] = test system: Engineered E. coli pH430 WT; assay: Activity, engineered E. coli pH430 WT; type: cell-based; details: wild type
Summary of the method: as §4

[36] = test system: A baum. AG227 APH(3′)-I armA; assay: Activity against G1405-methylated 16S-rRNA, clinical isolate AG227; type: cell-based
Summary of the method: as §4

[37] = test system: clinical isolates carrying APH(3′)-II; assay: MIC broth microdilution, APH(3′)-II; type: cell-based; details: clinical isolates, IMM Univ. Zurich; APH(3′)-II; read-out: MIC APH(3′)-II
[38] = test system: isolates carrying apmA; assay: MIC broth microdilution, apmA; type: cell-based
Summary of the method: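 Clinical isolates carrying apmA, from the University of Zurich Institute of Medical Microbiology, were tested by broth microdilution following CLSI M07-A10; values are MICs in μg/ml.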

[39] = test system: N. gonorrhoeae; assay: Disk diffusion N. gonorrhoeae; type: cell-based
[40] = test system: WT clinical isolates; assay: MIC broth microdilution, WT; type: cell-based; details: read-out: MIC WT, clinical isolates, IMM Univ. Zurich; wild type
Summary of the method: as §6

SMILES | IC50 [1] [µM] | MIC [2] [µg/mL] | Antibacterial activity AG031 P. aer. APH(3′)-II [3] | Antibacterial activity AG042 MRSA AAC(6′)-I ANT(4′)-I APH(2′) [4] | Activity E. coli pH424 armA [5] | Antibacterial activity AG001 E. coli WT [6] | Antibacterial activity AG173 E. coli AAC(3)-IV [7] | Antibacterial activity AG032 P. aer. APH(3′)-II [10] | MIC [11] [µg/mL] | Activity E. coli pH426 rmtC [14] | MIC [16] [µg/mL] | MIC [17] [µg/mL] | Activity E. coli pH427 rmtF [20] | Antibacterial activity AG003 E. coli AAC(3)-II [22] | Antibacterial activity AG038 MRSA [23] | Antibacterial activity AG039 MRSA AAC(6′)-I ANT(4′)-I [24] | MIC [26] [µg/mL] | IC50 [27] [µM] | Activity E. coli pH425 rmtB [28] | MIC [29] [µg/mL] | other results
CNC1C(OC2OC(CO)C(N)C(O)C2O)OC2CC(N)C(OC3C(N)CC(N)C(O)C3OC3OC(CO)C(OCCN)C3O)OC2C1O [DC124, 5-O-β-(3′″-O-(2-Aminoethyl)-D-ribofuranosyl) apramycin] | 181 | 1 to 2 | 32-64 | 8 | 1 | 8 | 4 | 32-64 | 16 to 32 | 2 | > 32 | 2 | 2 | 4-8 | 8-16 | 8 | 8 | 57 | 4 | 1 to 2 | MIC [8]: 8 µg/mL (≈ 11.2 µM); Activity Enterob. AG302 AAC(3)-II AAC(6′)-I rmtC [9]: 4; Antibacterial activity AG163 E. coli APH(3′)-I [12]: 4-8; MIC [13]: 0.5 µg/mL (≈ 0.7 µM); Activity E. coli AG153 AAC(3)-II APH(3′)-II rmtB [15]: 4; activity against the IMM clinical isolates carrying the gene for AAC(3)-IV [16]: excellent antiribosomal and antibacterial activity; MIC [18]: 64 µg/mL (≈ 89.5 µM); Activity E. coli AG103 armA [19]: 0.5; MIC [21]: 4 µg/mL (≈ 5.6 µM); activity against eukaryotic ribosomes [25]: only low activity; selectivity at the target level ([25]; bacterial versus eukaryotic ribosomes): excellent selectivity; Antibacterial activity AG055 E. coli WT [30]: 8; susceptibility to the APH(3′, 5″) resistance determinant [31]: susceptible; IC50 [32]: 0.06 µM; Activity K. pneum. AG269 AAC(3)-II AAC(6′)-I rmtB [33]: 2; Antibacterial activity AG033 P. aer. APH(3′)-II AAC(6′)-I [34]: 128; Activity E. coli pH430 WT [35]: 2; Activity A baum. AG227 APH(3′)-I armA [36]: 16; MIC [37]: 2 µg/mL (≈ 2.8 µM)
CNC1C(OC2OC(CO)C(N)C(O)C2O)OC2CC(N)C(OC3C(N)CC(N)C(O)C3O)OC2C1O (stereo not drawn) [DC161, 5-Epi-apramycin] | 17 | 2 | 4 | 2-4 | 2 | 4 | 64 | 4 | 2 | 2 | > 32 | 2 | 2 | 4-8 | 4 | 4 | 2 | 20 | 2 | 1 | circumvention of the resistance mechanism apmA [38]: circumvent the resistance mechanism apmA; MIC ([38]; apmA resistance gene): 2 µg/mL (≈ 3.71 µM); MIC ([8]; reference strain): 0.5 µg/mL (≈ 0.927 µM); Disk diffusion 25 nmol N. gonorrhoeae [39]: 10 mm; Antibacterial activity AG055 E. coli WT [30]: 4; MIC [40]: 2 µg/mL (≈ 3.71 µM); IC50 [32]: 0.05 µM; Antibacterial activity AG033 P. aer. APH(3′)-II AAC(6′)-I [34]: 8; Activity E. coli pH430 WT [35]: 2
